The assay concerns the target MRGPRX4 (Homo sapiens, UniProt Q96LA9). The experiment in a line: MRGPR X4 antagonist activity, IP-One Gq HTRF assay in stably transfected HEK cells (versus agonist bilirubin, deoxycholic acid, conjugated bilirubin, urobilin, obeticholic acid or BAR502). In kind it is cell-based. The arrangement: expressed in transfected cells; host or cells: HEK cells, stably transfected. As to conditions: versus 10 μM Bilirubin agonist; HEK cells expressing human MRGPR X4; read-out: MRGPR4 Antagonist Activity. The protocol: HEK cells stably transfected to express human MRGPR X4 were maintained in an incubator at 37° C. with 5% CO2 and grown in DMEM media with 10% fetal bovine serum (FBS) and 1% each of sodium pyruvate, Glutamax, penicillin/streptomycin, and Geneticin. HEK cells stably transfected to express mouse MRGPR A1 were maintained in the same incubator and grown in DMEM media with 10% FBS, 1% each of sodium pyruvate, Glutamax, penicillin/streptomycin, Geneticin, and 2.2 mg/mL Hygromycin.
Cells were plated in a 384-well assay plate at 20,000 cells per well in 12 μL of Opti-MEM and kept in an incubator overnight. On the day of the assay, compounds solubilized at 10 mM in DMSO were added as a 10-point curve (10 uM final top concentration with 1:3 serial dilutions) using a Tecan D300E digital dispenser. […] Final concentrations of DMSO were kept consistent across the plate. Plates were incubated in the dark for 1 h at 37° C. and then for 30 minutes at room temperature. IP-1 standards and HTRF detection reagents were added according to the IP-One—Gq Kit purchased from Cisbio (part number 62IPAPEJ) and incubated in the dark for 1 h at room temperature. The plate was read on a Molecular Devices SpectraMax iD5 plate reader. The HTRF ratio was calculated from the raw data and graphed using GraphPad Prism to calculate an IC50 value for each compound.
Sequence of MRGPRX4 (Q96LA9 whole entry): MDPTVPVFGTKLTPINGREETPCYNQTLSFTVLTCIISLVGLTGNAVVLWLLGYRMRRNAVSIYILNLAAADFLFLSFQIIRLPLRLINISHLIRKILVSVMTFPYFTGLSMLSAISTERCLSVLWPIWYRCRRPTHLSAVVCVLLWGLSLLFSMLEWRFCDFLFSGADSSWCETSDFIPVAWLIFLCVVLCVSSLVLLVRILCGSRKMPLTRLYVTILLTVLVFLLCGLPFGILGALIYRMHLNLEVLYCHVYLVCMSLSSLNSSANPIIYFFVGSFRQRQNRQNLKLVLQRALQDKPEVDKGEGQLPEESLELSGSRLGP
`CCOc1ccccc1OCc1cccc(C(=O)O)c1` [Compound 1-84]: the IC50 lay in the range of 1000 to 2500 nM.

As for `CC(C)c1ccc(OCc2cccc(C(=O)O)c2)cc1` [Compound 1-86], the IC50 fell in the range of 500 to 1000 nM.

With `O=C(O)c1cccc(COc2cccc3c2CCCC3=O)c1` [Compound 1-87], the IC50 fell in the range of 1000 to 2500 nM.

Consider `Cc1ccc(C(C)(C)C)c(OCc2cccc(C(=O)O)c2)c1` [Compound 1-88], for which the IC50 lay within 1000 to 2500 nM.

On to `Cc1ccc(OCc2cccc(C(=O)O)c2)cc1F` [Compound 1-89], for which the IC50 was 100 to 500 nM.

For `N#Cc1ccc(OCc2cccc(C(=O)O)c2)cc1Cl` [Compound 1-90], the IC50 was 100 to 500 nM.

Turning to `O=C(O)c1cccc(COc2ccc(F)cc2C(F)(F)F)c1` [Compound 1-91], the IC50 lay within 500 to 1000 nM.

On to `COc1ccc(OCc2cccc(C(=O)O)c2)c(Cl)c1` [Compound 1-92], for which the IC50 is 1000 to 2500 nM.

As for `Cc1cc(F)ccc1OCc1cccc(C(=O)O)c1` [Compound 1-94], the IC50 lay in the range of 1000 to 2500 nM.

On to `Cc1c(Cl)cccc1OCc1cccc(C(=O)O)c1` [Compound 1-95], for which the IC50 fell in the range of 100 to 500 nM.

Regarding `COc1ccc(OCc2cccc(C(=O)O)c2)c(F)c1F` [Compound 1-96], the IC50 was 500 to 1000 nM.

Turning to `O=C(O)c1cccc(COc2ccc3ccsc3c2)c1` [Compound 1-97], the IC50 is 100 to 500 nM.

In the case of `O=C(O)c1cccc(COc2ccc3ccncc3c2)c1` [Compound 1-98], the IC50 is 500 to 1000 nM.

`Cc1cc(C#N)ccc1OCc1cccc(C(=O)O)c1` [Compound 1-99]: the IC50 was in the range of 100 to 500 nM.

With `O=C(O)c1cccc(COc2cccc(C(F)F)c2)c1` [Compound 1-100], the IC50 was > 2500 nM.

Turning to `O=C(O)c1cccc(COc2ccc(C(F)(F)F)nc2)c1` [Compound 1-102], the IC50 lay in the range of 1000 to 2500 nM.

Turning to `O=C(O)c1cccc(COc2ccc(OC(F)(F)F)cc2Cl)c1` [Compound 1-103], the IC50 was < 100 nM.

For `Cc1cc(C(C)(C)C)ccc1OCc1cccc(C(=O)O)c1` [Compound 1-108], the IC50 was 1000 to 2500 nM.

Consider `O=C(O)c1cccc(COc2cccc(Br)c2)c1` [Compound 1-109], for which the IC50 lay in the range of 500 to 1000 nM.

As for `O=C(O)c1cccc(COc2ccc(Br)cc2)c1` [Compound 1-110], the IC50 lay in the range of 100 to 500 nM.

Turning to `O=C(O)c1cccc(COc2ccc(C(F)(F)F)c(F)c2)c1` [Compound 1-112], the IC50 was < 100 nM.

Consider `O=C(O)c1ccc(COc2ccc(Cl)cc2Cl)cc1` [Compound 1-113], for which the IC50 was 500 to 1000 nM.

Regarding `O=C(O)c1ccccc1COc1ccc(Cl)cc1Cl` [Compound 1-114], the IC50 was 1000 to 2500 nM.

For `O=C(O)c1cncc(COc2ccc(Cl)cc2Cl)n1` [Compound 1-116], the IC50 lay within 500 to 1000 nM.

Turning to `COC(=O)c1cccc(COc2ccc(C(F)(F)F)cc2Cl)c1F` [Compound 1-117], the IC50 was in the range of 500 to 1000 nM.

With `O=C(O)c1cccc(COc2ccc(C(F)(F)F)c(Cl)c2)c1` [Compound 1-118], the IC50 was < 100 nM.

As for `O=C(O)c1cccc(COc2ccc(C(F)(F)F)cc2Br)c1` [Compound 1-120], the IC50 is < 100 nM.

As for `O=C(O)c1cc(F)cc(COc2ccc(OC(F)(F)F)cc2Cl)c1` [Compound 1-121], the IC50 lay within 100 to 500 nM.

For the compound `O=C(O)c1cccc(COc2ccc(C3CC3)cc2Cl)c1` [Compound 1-122], the IC50 fell in the range of 100 to 500 nM.

As for `O=C(O)c1cc(F)cc(COc2ccc(Cl)c(Cl)c2Cl)c1` [Compound 1-123], the IC50 is < 100 nM.

`O=C(O)c1cccc(COc2ccc(Cl)c(Cl)c2Cl)c1F` [Compound 1-124]: the IC50 is < 100 nM.

Take `O=C(O)c1cccc(COc2ccc(OC(F)(F)F)cc2Cl)n1` [Compound 1-125]: the IC50 was < 100 nM.

On to `CC(=O)c1ccc(OCc2cccc(C(=O)O)c2)c(Cl)c1` [Compound 1-126], for which the IC50 is 1000 to 2500 nM.

On to `Cc1cc(C(F)(F)F)ccc1OCc1cccc(C(=O)O)n1` [Compound 1-127], for which the IC50 was < 100 nM.

In the case of `O=C(O)c1cccc(COc2ccc3ccoc3c2)c1` [Compound 1-128], the IC50 is 500 to 1000 nM.

The record behind these values is patent US11840521B2, “Modulators of Mas-related G-protein receptor X4 and related products and methods” (Escient Pharmaceuticals, Inc., priority 2019, dated 2023).
